Data taken from patent US20110060053A1, “Crystalline Modifications of 6-Dimethylaminomethyl-1-(3-methoxyphenyl)-cyclohexane-1,3-diol” (Gruenenthal GmbH, priority 2002, published 2011).

Assay: thermodynamic stability of the crystalline modifications
Format: physicochemical
Conditions: in particular in the temperature range of −20° C. to 120° C.

SMILES: COc1cccc([C@@]2(O)C[C@H](O)CC[C@@H]2CN(C)C)c1 (racemic) [Crystalline modification A, (1RS,3RS,6RS)-6-dimethylaminomethyl-1-(3-methoxyphenyl)-cyclohexan-1,3-diol]
- thermodynamic stability: most thermodynamically stable form
